This is an account of results in patent publication US7745446B2, “Pyrazolo[1,5-c]pyrimidines” (Bayer Schering Pharma Aktiengesellschaft, priority 2004, dated 2010).

Where only a bound is given, the exact number is not on record here.

The target of one assay is T1, GST-ΔPH-Akt1 (Homo sapiens, UniProt P31749).
T1 construct: named GST-deltaPH-Akt1; 107-480aa; cloned in the pAcGl vector; GST (N); made in house; host or cells: SF9 insect cells (baculovirus vector pAcG1), co-expressed with PDK1
As to the kind of experiment: Biochemical ΔPH Akt1 assay (flashplate, 33P incorporation into histone 2B). To be noted: 100 nM ATP, histone 2B substrate; read-out: ΔPHAkt1 inhibition: IC50. The source says: For the biochemical assay ΔPHAkt1 is used devoid of its PH domain as a GST fusion protein (named GST-deltaPH-Akt1; 107-480aa; cloned in the pAcGl vector (BD Biosciences Pharmingen)), co-expressed with PDK1 in SF9 insect cells. The protein is purified using glutathion-affinity chromatography by standard protocols.
In order to study the inhibition of Akt according to the invention, a flashplate-based assay has been developed.
The Akt1 assay is a biochemical assay using Akt1 devoid of its PH domain and co-expressed with PDK1 in insect cells. The GST-ΔPH-Akt1 assay is run in 96 well plates by incubating 100 ng/well GST-ΔPH-Akt1, 100 ng/well histone 2B (Roche, #223514) as substrate, 10 μl of compound of invention (test compounds were dissolved as 10 mM solutions in dimethylsulfoxide (DMSO) and subsequently diluted) and 100 nM ATP (including ^33P-ATP) in 100 μl of reaction buffer ([…], pH7,5; 3 mM MgCl2; 3 mM MnCl2; 3 μM Na-Orthovanadat; 1 mM DTT; 1 μg/ml PEG8000) for 80 minutes at 30° C. The reactions are terminated by adding 100 μl stopping buffer (2% H3PO4 for 5 minutes) and are washed 3 times by using washing buffer (0.9% NaCl). Relying on the incorporation of ^33P into the protein substrate histone 2B, the detection is based on the adhesion of the phosphorylated protein to the surface of scintillator-coated flash plates (NEN, USA; #SMP-200). This phosphorylation is measured by counting the plate for 60 sec. using a plate reader (Wallac Microbeta; Perkin Elmer, USA).

The target of the next assay is T2, PKA (Homo sapiens, UniProt P17612).
T2 construct: His; purchased PanVera, USA #R3791; host or cells: E. coli
As to the kind of experiment: Biochemical PKA assay (flashplate). To be noted: 100 nM ATP; read-out: PKA inhibition: −log IC50 (converted). Here is the method: For the biochemical PKA assay the catalytic subunit of PKA is expressed in E. coli as a His-tagged human recombinant protein and purified accordingly (PanVera, USA; #R3791).
In order to study the kinase inhibition activity of the compounds according to the invention, a flashplate-based assay has been developed for the serine/threonine kinase, PKA. The assay is run in 96 well plates by incubating 1 ng/well His-PKA (PanVera, USA; #R3791), 0.5 μM/well PKA peptide (#12-394; Upstate, USA) as substrate, 10 μl of compound of invention (test compounds were dissolved as 10 mM solutions in dimethylsulfoxide (DMSO) and subsequently diluted) and 100 nM ATP (including ^33P-ATP) in 100 μl of reaction buffer ([…], pH7,5; 3 mM MgCl2; 3 mM MnCl2; 3 μM Na-Orthovanadat; 1 mM DTT) for 80 minutes at 22° C. The reactions are stopped by adding 100 μl stopping buffer (2% H3PO4 for 5 minutes) and are washed 3 times by using washing buffer (200 μl 1×PBS). Relying on the incorporation of ^33P into the peptide substrate, the detection is based on the adhesion of the phosphorylated peptide to the surface of scintillator-coated Flash plates (Perkin Elmer, USA; #SMP-103). This phosphorylation is measured by counting the plate for 60 sec. using a plate reader (Wallac Microbeta; Perkin Elmer, USA). By using this method the IC50 of the PKA inhibition is determined.

For a further assay, the system named is MCF7 cells. As to the kind of experiment: Cellular proliferation/cytotoxicity assay (Alamar Blue), MCF7. Particulars: Homo sapiens, MCF7, 48 h, read-out: Anti-proliferative/cytotoxic activity: IC50 MCF7.
In another assay the test system is MDA-MB-468 cells. As to the kind of experiment: Cellular proliferation/cytotoxicity assay (Alamar Blue), MDA-MB-468. Particulars: Homo sapiens, MDA-MB-468, 48 h, read-out: Anti-proliferative/cytotoxic activity: IC50 MDA468. (In general: Alamar Blue is a resazurin reagent that responds to reducing activity.)

T1 sequence (P31749 107-480, stated change not applied): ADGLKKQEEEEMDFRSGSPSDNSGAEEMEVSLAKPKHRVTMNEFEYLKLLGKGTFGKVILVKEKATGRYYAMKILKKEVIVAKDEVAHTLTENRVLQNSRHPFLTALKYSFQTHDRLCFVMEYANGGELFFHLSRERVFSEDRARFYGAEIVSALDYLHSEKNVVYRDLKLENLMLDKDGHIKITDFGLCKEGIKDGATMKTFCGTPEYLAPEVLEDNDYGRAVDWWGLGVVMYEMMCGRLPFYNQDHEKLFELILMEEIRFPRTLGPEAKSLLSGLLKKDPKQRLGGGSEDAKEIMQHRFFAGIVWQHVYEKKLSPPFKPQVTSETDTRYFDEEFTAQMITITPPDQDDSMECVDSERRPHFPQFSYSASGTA
Method for MDA-MB-468 cells: The anti-proliferative activity of the compounds as described herein, is evaluated using MCF7 and MDA-MB-468 (ATCC HTB-22 and HTB-132) cell lines and the Alamar Blue (Resazurin) cell viability assay (O'Brien et al. Eur J Biochem 267, 5421-5426, 2000). Resazurin is reduced to the fluorescent resorufin by cellular dehydrogenase activity, correlating with viable, proliferating cells. Test compounds are dissolved as 10 mM solutions in DMSO and subsequently diluted. MCF7 or MDA-MB-434 cells were seeded into 96 well flat bottom plates at a density of 10000 cells/well (MCF7) or 5000 cells/well (MDA-MB-468) in a volume of 200 μl/well. 24 hours after seeding, 1 μl each of the compound dilutions are added into each well of the 96 well plates. Each compound dilution is tested as at least as duplicates. Wells containing untreated control cells were filled with 200 μl DMEM containing 0.5% v:v DMSO. The cells are then incubated with the substances for 48 hours at 37° C. in a humidified atmosphere containing 5% carbon dioxide. To determine cell viability, 20 μl of a Resazurin solution (Sigma; 90 mg/l) are added. After 4 hours incubation at 37° C. the fluorescence is measured at an extinction of 544 nm and an emission of 590 nm (Wallac Victor2; Perkin Elmer, USA). For the calculation of the cell viability the emission value from untreated cells is set as 100% viability and the emission rates of treated cells are set in relation to the values of untreated cells. Viabilities are expressed as % values. The corresponding IC50 values of the compounds for cytotoxic activity are determined from the concentration-effect curves by means of non-linear regression. The analysis of the data is performed using a biostatistical program (GraphPad Prism, USA).

On to `NCC(C(=O)Nc1cccc(Nc2nc(-c3cccc4c3oc3ccccc34)cc3ccnn23)c1)c1ccc(Cl)c(Cl)c1` (racemic) [Example 41, rac-3-Amino-N-[3-(5-dibenzofuran-4-yl-pyrazolo[1,5-c]pyrimidin-7-ylamino)-phenyl]-2-(3,4-dichloro-phenyl)-propionamide], for which the IC50 at GST-ΔPH-Akt1 was at most 1.75 µM; on PKA it was above 100 µM; in the assay on MCF7 cells, at most 16.9 µM; with MDA-MB-468 cells it was at most 13.6 µM.

As to `NCCC(C(=O)Nc1ccc(Nc2nc(-c3cccc4c3oc3ccccc34)cc3ccnn23)cc1)c1ccc(Cl)c(Cl)c1` (racemic) [Example 43, rac-4-Amino-N-[4-(5-dibenzofuran-4-yl-pyrazolo[1,5-c]pyrimidin-7-ylamino)-phenyl]-2-(3,4-dichloro-phenyl)-butyramide], the IC50 at GST-ΔPH-Akt1 is at most 1.75 µM; at PKA, 6.31 to 100 µM; in the assay on MCF7 cells it was at most 16.9 µM; in the assay with MDA-MB-468 cells it was at most 13.6 µM.

Consider `NCc1ccc(C(=O)Nc2ccc(Nc3nc(-c4ccc(-c5ccccc5)cc4)cc4ccnn34)cc2)cc1` [Example 1, 4-Aminomethyl-N-[4-(5-biphenyl-4-yl-pyrazolo[1,5-c]pyrimidin-7-ylamino)-phenyl]-benzamide], for which the IC50 at GST-ΔPH-Akt1 was at most 1.75 µM; at PKA it was above 100 µM; in the assay with MCF7 cells, at most 16.9 µM; in the assay with MDA-MB-468 cells, at most 13.6 µM.

`NCc1cccc(C(=O)Nc2ccc(Nc3nc(-c4cccc5c4oc4ccccc45)cc4ccnn34)cc2)c1` [Example 20, 3-Aminomethyl-N-[4-(5-dibenzofuran-4-yl-pyrazolo[1,5-c]pyrimidin-7-ylamino)-phenyl]-benzamide]: the figures for the IC50 on GST-ΔPH-Akt1, in the assay on MCF7 cells and in the assay with MDA-MB-468 cells were at most 1.75 µM, at most 16.9 µM and at most 13.6 µM, respectively.

As for `NCCc1ccc(C(=O)Nc2ccc(Nc3nc(-c4cccc5c4oc4ccccc45)cc4ccnn34)cc2)cc1` [Example 23, 4-(2-Amino-ethyl)-N-[4-(5-dibenzofuran-4-yl-pyrazolo[1,5-c]pyrimidin-7-ylamino)-phenyl]-benzamide], the IC50 is at most 1.75 µM at GST-ΔPH-Akt1, above 100 µM at PKA, at most 16.9 µM in the assay with MCF7 cells and at most 13.6 µM in the assay with MDA-MB-468 cells.

For `NCc1ccc(C(=O)Nc2cccc(Nc3nc(-c4cccc5c4oc4ccccc45)cc4ccnn34)c2)c(F)c1` [Example 27, 4-Aminomethyl-N-[3-(5-dibenzofuran-4-yl-pyrazolo[1,5-c]pyrimidin-7-ylamino)-phenyl]-2-fluoro-benzamide], the IC50 at GST-ΔPH-Akt1 is at most 1.75 µM; on PKA it was above 100 µM; in the assay with MCF7 cells it was at most 16.9 µM; in the assay on MDA-MB-468 cells it was at most 13.6 µM.

Take `NCc1ccc(C(=O)Nc2ccc(Nc3nc(-c4cccc5c4oc4ccccc45)cc4ccnn34)cc2)c(F)c1` [Example 28, 4-Aminomethyl-N-[4-(5-dibenzofuran-4-yl-pyrazolo[1,5-c]pyrimidin-7-ylamino)-phenyl]-2-fluoro-benzamide]: the IC50 at GST-ΔPH-Akt1 was at most 1.75 µM; on PKA, above 100 µM; in the assay with MCF7 cells, at most 16.9 µM; in the assay on MDA-MB-468 cells, at most 13.6 µM.

Take `NCc1cc(C(=O)Nc2ccc(Nc3nc(-c4cccc5c4oc4ccccc45)cc4ccnn34)cc2)ccn1` [Example 30, 2-Aminomethyl-N-[4-(5-dibenzofuran-4-yl-pyrazolo[1,5-c]pyrimidin-7-ylamino)-phenyl]-isonicotinamide]: the IC50 at GST-ΔPH-Akt1 is at most 1.75 µM; on PKA it was above 100 µM.

Consider `CC(C)(N)c1ccc(C(=O)Nc2cccc(Nc3nc(-c4cccc5c4oc4ccccc45)cc4ccnn34)c2)cc1` [Example 40, 4-(1-Amino-1-methyl-ethyl)-N-[3-(5-dibenzofuran-4-yl-pyrazolo[1,5-c]pyrimidin-7-ylamino)-phenyl]-benzamide], for which the IC50 at GST-ΔPH-Akt1 was at most 1.75 µM; at PKA, 6.31 to 100 µM.

As to `COc1ccc2cc(-c3cc4ccnn4c(Nc4ccc(NC(=O)c5ccc(CN)cc5)cc4)n3)ccc2c1` [Example 45, 4-Aminomethyl-N-{4-[5-(6-methoxy-naphthalen-2-yl)-pyrazolo[1,5-c]pyrimidin-7-ylamino]-phenyl}-benzamide], the IC50 on GST-ΔPH-Akt1 is at most 1.75 µM; with MCF7 cells, at most 16.9 µM; in the assay with MDA-MB-468 cells, at most 13.6 µM.

Turning to `N=C(N)Nc1ccc(C(=O)Nc2ccc(Nc3nc(-c4cccc5c4oc4ccccc45)cc4ccnn34)cc2)cc1` [Example 48, N-[4-(5-Dibenzofuran-4-yl-pyrazolo[1,5-c]pyrimidin-7-ylamino)-phenyl]-4-guanidino-benzamide], the IC50 at GST-ΔPH-Akt1 is at most 1.75 µM; at PKA it was above 100 µM.

For `NCc1cccc(C(=O)Nc2ccc(Nc3nc(-c4cccc5c4oc4ccccc45)cc4ccnn34)cc2)n1` [Example 51, 6-Aminomethyl-pyridine-2-carboxylic acid [4-(5-dibenzofuran-4-yl-pyrazolo[1,5-c]pyrimidin-7-ylamino)-phenyl]-amide], the figures for the IC50 at GST-ΔPH-Akt1 and at PKA were at most 1.75 µM and above 100 µM, respectively.

On to `NCc1ccc(C(=O)Nc2ccc(Nc3nc(-c4ccc(-c5ccccc5)nc4)cc4ccnn34)cc2)cc1` [Example 54, 4-Aminomethyl-N-{4-[5-(6-phenyl-pyridin-3-yl)-pyrazolo[1,5-c]pyrimidin-7-ylamino]-phenyl}-benzamide], for which the values for the IC50 at GST-ΔPH-Akt1 and at PKA were at most 1.75 µM and 6.31 to 100 µM, respectively.

In the case of `CC(=O)Nc1cccc(-c2ccc(-c3cc4ccnn4c(Nc4ccc(NC(=O)c5ccc(CN)cc5)cc4)n3)cc2)c1` [Example 60, N-{4-[5-(3′-Acetylamino-biphenyl-4-yl)-pyrazolo[1,5-c]pyrimidin-7-ylamino]-phenyl}-4-aminomethyl-benzamide], the IC50 at GST-ΔPH-Akt1 is at most 1.75 µM; at PKA, 6.31 to 100 µM.

Consider `COc1cccc(-c2ccc(-c3cc4ccnn4c(Nc4ccc(NC(=O)c5ccc(CCN)cc5)cc4)n3)cc2)c1` [Example 78, 4-(2-Amino-ethyl)-N-{4-[5-(3′-methoxy-biphenyl-4-yl)-pyrazolo[1,5-c]pyrimidin-7-ylamino]-phenyl}-benzamide], for which the IC50 is at most 1.75 µM at GST-ΔPH-Akt1, at most 16.9 µM with MCF7 cells and at most 13.6 µM in the assay on MDA-MB-468 cells.

As to `O=C(Nc1ccc(Nc2nc(-c3ccc(-c4cccc([N+](=O)[O-])c4)cc3)cc3ccnn23)cc1)c1ccc2c(c1)CCNC2` [Example 80, 1,2,3,4-Tetrahydro-isoquinoline-6-carboxylic acid {4-[5-(3′-nitro-biphenyl-4-yl)-pyrazolo[1,5-c]pyrimidin-7-ylamino]-phenyl}-amide], the IC50 on GST-ΔPH-Akt1 was at most 1.75 µM; in the assay on MCF7 cells, at most 16.9 µM; in the assay on MDA-MB-468 cells, at most 13.6 µM.

For `NCCc1ccc(C(=O)Nc2ccc(Nc3nc(-c4ccc(-c5cccc([N+](=O)[O-])c5)cc4)cc4ccnn34)cc2)cc1` [Example 81, 4-(2-Amino-ethyl)-N-{4-[5-(3′-nitro-biphenyl-4yl)-pyrazolo[1,5-c]pyrimidin-7-ylamino]-phenyl}-benzamide], the IC50 on GST-ΔPH-Akt1 was at most 1.75 µM; in the assay with MCF7 cells it was at most 16.9 µM; with MDA-MB-468 cells, at most 13.6 µM.

Consider `O=C(Nc1ccc(Nc2nc(-c3ccc(Br)cc3)cc3ccnn23)cc1)c1ccc2c(c1)CCNC2` [Example 85, 1,2,3,4-Tetrahydro-isoquinoline-6-carboxylic acid {4-[5-(4-bromo-phenyl)-pyrazolo[1,5-c]pyrimidin-7-ylamino]-phenyl}-amide], for which the IC50 on GST-ΔPH-Akt1 was at most 1.75 µM; in the assay with MCF7 cells, at most 16.9 µM; in the assay on MDA-MB-468 cells, at most 13.6 µM.
